Measured values from US8227407B2, “Macrocyclic inhibitors of hepatitis C virus” (Medivir AB, priority 2008, dated 2012).

Key:
[1] = tested on: HCV replicons (Huh-7 luc/neo cells, NS3-NS5B regions of HCV type 1b); assay: HCV replicon assay (Huh-Luc cells, luciferase readout); format: cell-based; details: Hepatitis C virus, Huh-7, 72 h, three days incubation, luciferase activity
Procedure: The in vitro antiviral activity against HCV of the compounds of formula (I) was tested in a cellular HCV replicon system based on Lohmann et al. (1999) Science 285:110-113, with the further modifications described by Krieger et al. (2001) Journal of Virology 75: 4614-4624, which is further exemplified in the examples section. This model, while not a complete infection model for HCV, is widely accepted as the most robust and efficient model of autonomous HCV RNA replication currently available. […] It will be appreciated that it is important to distinguish between compounds that specifically interfere with HCV functions from those that exert cytotoxic or cytostatic effects in the HCV replicon model, and as a consequence cause a decrease in HCV RNA or linked reporter enzyme concentration. […]
The replicon cells were plated in 384 well plates in the presence of the test and control compounds which were added in various concentrations. Following an incubation of three days, HCV replication was measured by assaying luciferase activity (using standard luciferase assay substrates and reagents and a Perkin Elmer ViewLux™ ultraHTS microplate imager). […] The inhibitory activity of the compound on luciferase activity was monitored on the Huh-Luc cells, enabling a dose-response curve for each test compound. […]

[2] = biological target: T1, full-length hepatitis C NS3 protease enzyme with NS4A cofactor (HCV NS3/4A protease) (Hepatitis C virus genotype 1a, UniProt P27958); assay: HCV NS3/4A protease inhibition assay (enzymatic); format: biochemical; details: 1 nM enzyme, 25 μM NS4A cofactor, 0.5 μM depsipeptide substrate, 30° C., competitive inhibition model
T1 construct: full-length hepatitis C NS3 protease enzyme
Procedure: The aim of this in vitro assay was to measure the inhibition of HCV NS3/4A protease complexes by the compounds of the present invention. This assay provides an indication of how effective compounds of the present invention would be in inhibiting HCV NS3/4A proteolytic activity.
The inhibition of full-length hepatitis C NS3 protease enzyme was measured essentially as described in Poliakov, 2002 Prot Expression & Purification 25 363 371. Briefly, the hydrolysis of a depsipeptide substrate, Ac-DED(Edans)EEAbuψ[COO]ASK(Dabcyl)-NH2 (AnaSpec, San José, USA), was measured spectrofluorometrically in the presence of a peptide cofactor, KKGSVVIVGRIVLSGK (Åke Engström, Department of Medical Biochemistry and Microbiology, Uppsala University, Sweden). [Landro, 1997 #Biochem 36 9340-9348]. The enzyme (1 nM) was incubated in 50 mM HEPES, pH 7.5, 10 mM DTT, 40% glycerol, 0.1% n-octyl-D-glucoside, with 25 μM NS4A cofactor and inhibitor at 30° C. for 10 min, whereupon the reaction was initiated by addition of 0.5 μM substrate. Inhibitors were dissolved in DMSO, sonicated for 30 sec. and vortexed. The solutions were stored at −20° C. between measurements.
The final concentration of DMSO in the assay sample was adjusted to 3.3%. The rate of hydrolysis was corrected for inner filter effects according to published procedures. [Liu, 1999 Analytical Biochemistry 267 331-335]. […]

T1 sequence (P27958 1027-1657): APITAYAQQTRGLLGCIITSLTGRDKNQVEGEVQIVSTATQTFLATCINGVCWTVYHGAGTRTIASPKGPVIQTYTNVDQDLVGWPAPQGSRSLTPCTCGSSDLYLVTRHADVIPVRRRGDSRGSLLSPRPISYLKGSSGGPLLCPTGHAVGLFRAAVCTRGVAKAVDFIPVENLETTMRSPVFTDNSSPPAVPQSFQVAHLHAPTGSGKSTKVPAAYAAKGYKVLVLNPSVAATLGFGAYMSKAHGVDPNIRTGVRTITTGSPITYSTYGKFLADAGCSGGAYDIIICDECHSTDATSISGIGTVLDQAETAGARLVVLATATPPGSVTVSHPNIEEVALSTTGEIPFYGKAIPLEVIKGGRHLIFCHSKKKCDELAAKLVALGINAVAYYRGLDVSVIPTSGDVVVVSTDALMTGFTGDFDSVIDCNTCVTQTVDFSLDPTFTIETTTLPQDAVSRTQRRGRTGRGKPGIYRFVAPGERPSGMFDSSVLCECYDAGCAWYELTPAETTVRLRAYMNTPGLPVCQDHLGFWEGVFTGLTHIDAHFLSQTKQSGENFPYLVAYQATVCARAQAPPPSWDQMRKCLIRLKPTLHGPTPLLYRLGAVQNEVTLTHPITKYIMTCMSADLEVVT

Structure (SMILES) | EC50 [1] | Ki [2]
COc1ccc2c(O[C@@H]3C[C@H]4C(=O)N[C@]5(C(=O)NS(=O)(=O)N(C)C)C[C@H]5/C=C\CCCCN(C)C(=O)[C@@H]4C3)cc(-c3nc(C(C)C)cs3)nc2c1 [Compound 37, N-[17-[2-(4-isopropylthiazol-2-yl)-7-methoxyquinolin-4-yloxy]-13-methyl-2,14-dioxo-3,13-diazatricyclo[13.3.0.0^4,6]octadec-7-ene-4-carbonyl](dimethylamino)sulfonamide] | 0.3 µM | 24 nM
CCN(C)S(=O)(=O)NC(=O)[C@@]12C[C@H]1/C=C\CCCCN(C)C(=O)[C@@H]1C[C@H](Oc3cc(-c4nc(C(C)C)cs4)nc4cc(OC)ccc34)C[C@H]1C(=O)N2 [Compound 38, N-[17-[2-(4-isopropylthiazol-2-yl)-7-methoxyquinolin-4-yloxy]-13-methyl-2,14-dioxo-3,13-diazatricyclo[13.3.0.0^4,6]octadec-7-ene-4-carbonyl]-[(ethyl)(methyl)amino]sulfonamide] | 0.3 µM | 24 nM
